For one test, the system named is primary adipocytes. As to the kind of experiment: Primary adipocyte glucose uptake assay (14C glucose). Particulars: test compound 50 mM without insulin, compared to samples containing only insulin (final concentration=100 μm).
For `Cn1nnnc1Sc1ncc([N+](=O)[O-])s1` [Compound 15], the “response in the primary adipocyte glucose uptake assay compared with the insulin control” value (“response … compared with the insulin control” below) is on record as “did not give a response greater than or equal to the insulin control”. The same measure, in the same setting: to `O=[N+]([O-])c1cnc(Sc2nnnn2-c2ccccc2)s1` [Compound 91, 5-[(5-Nitrothiazol-2-yl)mercapto]-1-phenyltetrazole] belongs “did not give a response greater than or equal to the insulin control”. On the same count and under the same terms, for `CCCCCC(=O)Nc1ccc(-n2nnnc2Sc2ncc([N+](=O)[O-])s2)cc1` [Compound 89, 1-[4-(n-Hexanoylamino)phenyl]-5-[(5-nitrothiazol-2-yl)mercapto]tetrazole] the value was “did not give a response greater than or equal to the insulin control”; for `C#CCSc1nnc(Sc2ncc([N+](=O)[O-])s2)s1` [Compound 92, 2-[(5-Nitrothiazol-2-yl)mercapto]-5-propargylmercapto-1,3,4-thiadiazole], “did not give a response greater than or equal to the insulin control”. For the compound `O=[N+]([O-])c1cnc(Sc2ncc[nH]2)s1` [Compound 87, 2-[(5-Nitrothiazol-2-yl)mercapto]imidazole], the “response … compared with the insulin control” value is on record as “did not give a response greater than or equal to the insulin control”.

Turning to `O=[N+]([O-])c1cnc(Sc2nnnn2-c2cccc(O)c2)s1` [Compound 88, 1-(3-Hydroxyphenyl)-5-[(5-nitrothiazol-2-yl)mercapto]tetrazole], the “response … compared with the insulin control” value is “did not give a response greater than or equal to the insulin control”. With `CC(C)n1c(Sc2ncc([N+](=O)[O-])s2)nc2cc(Cl)ccc21` [Compound 96(a), 5-Chloro-1-isopropyl-2-[(5-nitrothiazol-2-l)mercapto]benzimidazole], the “response … compared with the insulin control” value is listed as “did not give a response greater than or equal to the insulin control”. The same measure, in the same setting: for `Cc1ccsc1/C=C/c1ccnc(Sc2ncc([N+](=O)[O-])s2)n1` [Compound 98] the value was “did not give a response greater than or equal to the insulin control”. Still for that read-out and setting: for `O=[N+]([O-])c1cnc(Sc2nc3cc4c(cc3[nH]2)OCCO4)s1` [Compound 90, 7-[(5-Nitrothiazol-2-yl)mercapto]-benzimidazo[5,6-b]1,4-dioxane] the value was “did not give a response greater than or equal to the insulin control”.

For the next test, the system named is insulin receptor (IR). As to the kind of experiment: Phosphotyrosine enzyme linked immunosorbent assay: pTyr on insulin receptor in NIH3T3 cells over-expressing human IR (H25 cells). Particulars: Table II; at 50 μM; LOT2.
For `Cn1nnnc1Sc1ncc([N+](=O)[O-])s1` [Compound 15], the “increase in PTYR” value stood at 40%.

Still in this test, the particulars now being: Table III; 100, 50 and 25 μM.
Turning to `O=[N+]([O-])c1cnc(Sc2nnc(NC3CCCCC3)s2)s1` [Compound 75], the “increase in PTYR” value is recorded as 47%.

The test is the same for the next values; noted with them: read-out: ACTIVITY EC50.
As to `O=[N+]([O-])c1ccc(-c2nnc(Sc3ncc([N+](=O)[O-])s3)[nH]2)o1` [Compound 78, 2-(2-Nitrofuran-5-yl)-5-[(5-nitrothiazol-2-yl)mercapto]-1,2,4-triazole], the 50% effective concentration (EC50) was determined as 36 µM.

The same test, now with this note: read-out: ACTIVITY EC50; Table II; LOT 1.
For the compound `Cn1nnnc1Sc1ncc([N+](=O)[O-])s1` [Compound 15], the EC50 is 8.4 µM.

The same test, now with this note: read-out: ACTIVITY EC50; Table III; […].
`Nc1ccc(-n2nnnc2Sc2ncc([N+](=O)[O-])s2)cc1` [Compound 29, 1-(4-Aminophenyl)-5-[(5-nitrothiazol-2-yl)mercapto]tetrazole]: the EC50 is more than 100 µM. Still for that read-out and setting: for `O=[N+]([O-])c1cnc(Sc2nc3ccc(S(=O)(=O)O)cc3[nH]2)s1` [Compound 51, 2-[(5-nitrothiazol-2-yl)mercapto]-5-sulfobenzimidazole] the value was 10.3 µM. On the same count and under the same terms, for `O=[N+]([O-])c1cnc(Sc2nc3c([nH]2)CC(Cl)C(Cl)C3)s1` (stereo not shown) [Compound 39, 5,6-Dichloro-2-[(5-nitrothiazol-2-yl)mercapto]cyclohexoimidazole] the value was 17.5 µM; for `CCOC(=O)c1c[nH]c(Sc2ncc([N+](=O)[O-])s2)n1` [Compound 43, 4-Ethoxycarbonyl-2-[(5-nitrothiazol-2-yl)mercapto]imidazole], 8.5 µM. Still for that read-out and setting: for `O=[N+]([O-])c1cnc(Sc2nnc(Sc3nnc(Sc4cc(O)ccc4O)s3)s2)s1` [Compound 27, 2-(2,5-Dihydroxyphenylmercapto)-5-[[2-[(5-nitrothiazol-2-yl)mercapto]-1,3,4-thiadiazol-5-yl]mercapto]-1,3,4-thiadiazole] the value was 96 µM. In the case of `Cc1nnc(Sc2ncc([N+](=O)[O-])s2)s1` [Compound 60, 2-Methyl-5-[(5-nitrothiazol-2-yl)mercapto]-1,3,4-thiadiazole], the EC50 is more than 100 µM. The same measure, in the same setting: to `Cc1cc(C)c(Nc2nnc(Sc3ncc([N+](=O)[O-])s3)s2)c(C)c1` [Compound 72, 2-[(5-Nitrothiazol-2-yl)mercapto]-5-(2,4,6-trimethylphenylamino)-1,3,4-thiadiazole] belongs 20 µM.

`CCOC(=O)c1nc(Sc2ncc([N+](=O)[O-])s2)[nH]c1C(=O)OCC` [Compound 48, 4,5-Di(ethoxycarbonyl)-2-[(5-nitrothiazol-2-yl)mercapto]imidazole]: the 50% effective concentration (EC50) was more than 100 µM. The same measure, in the same setting: to `CCOC(=O)c1nc(Sc2ncc([N+](=O)[O-])s2)n(C2CCCCC2)c1C(=O)OCC` [Compound 47, 1-Cyclohexyl-4,5-di(ethoxycarbonyl)-2-[(5-nitrothiazol-2-yl)mercapto]imidazole] belongs 15.7 µM. For the compound `Cc1cccc(C)c1NC1=CN=C(Sc2ncc([N+](=O)[O-])s2)SN1` [Compound 70, 3-(2,6-dimethylphenylamino)-6-[(5-nitrothiazol-2-yl)mercapto]-1,2,5-thiadiazine], the EC50 is more than 100 µM. The same measure, in the same setting: to `O=C1CCCc2nc(Sc3ncc([N+](=O)[O-])s3)ncc21` [Compound 68, 2-[(5-Nitrothiazol-2-yl)mercapto]cyclohexylpyrimid-5-one] belongs more than 100 µM; to `O=C(Sc1nnc(Sc2ncc([N+](=O)[O-])s2)s1)c1ccccc1` [Compound 65, 2-Benzoylmercapto-5-[(5-nitrothiazol-2-yl)mercapto]-1,3,4-thiadiazole], more than 25 µM; to `Cc1ccc(Cl)cc1Nc1nnc(Sc2ncc([N+](=O)[O-])s2)s1` [Compound 77, 2-(5-Chloro-2-methylphenylamino)-5-[(5-nitrothiazol-2-yl)mercapto]-1,3,4-thiadiazole], 5 µM.

`CCOc1ccc(OCC)c2[nH]c(Sc3ncc([N+](=O)[O-])s3)nc12` [Compound 46, 4,7-Diethoxy-2-[(5-nitrothiazol-2-yl)mercapto]benzimidazole]: the EC50 is 9.7 µM. The same measure, in the same setting: to `O=[N+]([O-])c1cnc(Sc2nnc(NC3CCCCC3)s2)s1` [Compound 75] belongs more than 100 µM; to `Cn1nnnc1Sc1ncc([N+](=O)[O-])s1` [Compound 56, 1-Methyl-5-[(5-nitrothiazol-2-yl)mercapto]tetrazole], 27 µM; to `COC(=O)c1cnc(Sc2ncc([N+](=O)[O-])s2)n1C` [Compound 42, 4-Methoxycarbonyl-3-methyl-2-[(5-nitrothiazol-2-yl)mercapto]imidazole], 14 µM. On the same count and under the same terms, for `O=[N+]([O-])c1cnc(Sc2nc3cc(C(F)(F)F)cc(Cl)c3[nH]2)s1` [Compound 41, 4-Chloro-2-[(5-nitrothiazol-2-yl)mercapto]-6-(trifluoromethyl)benzimidazole] the value was 10 µM. On to `O=C(CSc1nnc(Sc2ncc([N+](=O)[O-])s2)s1)Oc1ccccc1` [Compound 24, 2-[(5-Nitrothiazol-2-yl)mercapto]-5-[(phenoxycarbonyl)methylmercapto]-1,3,4-thiadiazole], for which the EC50 is more than 100 µM. For `Cc1ccc(Nc2nnc(Sc3ncc([N+](=O)[O-])s3)s2)c(C)c1` [Compound 71, 2-(2,4-Dimethylphenylamino)-5-[(5-nitrothiazol-2-yl)mercapto]-1,3,4-thiadiazole], the EC50 stood at 24 µM. `Cc1ccc(Nc2nnc(Sc3ncc([N+](=O)[O-])s3)s2)cc1` [Compound 69, 2-(4-Methylphenylamino)-5-[(5-nitrothiazol-2-yl)mercapto]-1,3,4-thiadiazole]: the EC50 was more than 100 µM. Same read-out and setting: for `CCOC(=O)c1cnc(Sc2ncc([N+](=O)[O-])s2)n1C` [Compound 44, 4-Ethoxycarbonyl-3-methyl-2-[(5-nitrothiazol-2-yl)mercapto]imidazole] the value was 7.6 µM. Same read-out and setting: for `CCCCSc1nnc(Sc2ncc([N+](=O)[O-])s2)s1` [Compound 23, 2-n-Butylmercapto-5-[(5-nitrothiazol-2-yl)mercapto]-1,3,4-thiadiazole] the value was more than 100 µM; for `CSc1nnc(Sc2ncc([N+](=O)[O-])s2)s1` [Compound 61, 2-Methylmercapto-5-[(5-nitrothiazol-2-yl)mercapto]-1,3,4-thiadiazole], 32 µM. Same read-out and setting: for `O=[N+]([O-])c1cnc(Sc2nnnn2Cc2ccccc2)s1` [Compound 80, 1-Benzyl-5-[(5-nitrothiazol-2-yl)mercapto]tetrazole] the value was 7.8 µM.

For the compound `CCn1nnnc1Sc1ncc([N+](=O)[O-])s1` [Compound 57, 1-Ethyl-5-[(5-nitrothiazol-2-yl)mercapto]tetrazole], the EC50 amounted to 81 µM. Still for that read-out and setting: to `Cn1c(Sc2ncc([N+](=O)[O-])s2)nc2cc(C(F)(F)F)cnc21` [Compound 53] belongs more than 25 µM; to `Cn1c(=O)n(C)c2nc(Sc3ncc([N+](=O)[O-])s3)ncc21` [Compound 36, 1,3-Dimethyl-5-[(5-nitrothiazol-2-yl)mercapto]imidazo[4,5-d]pyrimid-2-one], more than 100 µM; to `CCSc1nnc(Sc2ncc([N+](=O)[O-])s2)s1` [Compound 28, 2-Ethylmercapto-5-[(5-nitrothiazol-2-yl)mercapto]-1,3,4-thiadiazole], 35 µM. On the same count and under the same terms, to `NS(=O)(=O)c1ccc(-n2nnnc2Sc2ncc([N+](=O)[O-])s2)cc1` [Compound 33, 1-(4-Aminosulfonylphenyl)-5-[(5-nitrothiazol-2-yl)mercapto]tetrazole] belongs more than 100 µM.
